# Experiment: Blood constituents and health monitoring in rhesus males after EP055 infusion
# Type: in vivo, Macaca mulatta
# Set-up: Hematocrit: unit not given here
# Conditions: post low dose 75–80 mg/kg
# Text: The physical and behavioral condition of animals are monitored daily at ONPRC. Additional monitoring by Division of Comparative Medicine and/or clinical veterinary staff was provided immediately, at 1 hr, 2 hr and 6 hr post-administration of the contraceptive compound, and daily for up to 30 days after the final drug injection. Criteria used to assess animal health and welfare include: stool and urine quality and quantity, appetite and attitude (bright and alert, quiet, lethargic), pain (not eating, not moving, hunched over, lethargy/disinterest), vomiting, diarrhea, nausea, dehydration (unkempt coat, lack of urine production), and signs of wounds of injury. In addition, the ONPRC Standardized Pain Scoring system is used post-surgically to monitor an animal’s progress and improvement over time. Major criteria include animal appearance, posture, activity (including stool and urine production), vocalization and atypical behaviors.
# Prior to infusion of EP055, each male was sedated with ketamine by the surgical staff at ONPRC and transported to the operating room. After positioning in dorsal recumbency, the male was intubated and placed under inhalant (isoflurane) anesthesia. Bilateral intravenous catheters were placed in cephalic veins, one for infusion and one for back-up. A percutaneous arterial line was placed in the right femoral artery for direct blood pressure measurement. Invasive blood pressure, heart rate, SpO2, and respirations were monitored by the surgical staff throughout the procedure. Initially, the low doses of EP055 in 5% DMSO-PBS 7.6 was infused by i.v. at 75-80 mg/kg, using a Medfusion 3500 pump (Smiths Medical, St. Paul, MN), and was started at a low flow rate ([…]). In 3 of 4 males, a 5-10% increase in blood pressure and heart rate were noted within the first 2-3 minutes of infusion of EP055. In these cases, the infusion was temporarily suspended until these parameters subsequently declined to normal. The infusion rate was then doubled to 1.2 ml/kg/min after 5-10 minutes and the final volume of EP055 infusate was administered. Blood pressure and heart rate remained normal throughout the rest of the infusion interval. The total volume of EP055 infusate ranged from 72 ml – 136 ml, depending upon the weight of the animal, and the duration of infusion was 10-13 minutes. Following completion of the infusion, all animals recovered normally. Animals were monitored by clinical veterinary staff immediately, at 1 hr, 2 hr and 6-8 hr post-infusion, and daily for up to 30 days after the final infusion of EP055. […] Two weeks after the infusion of the low dose and collection of the next set of baseline semen samples, males were infused with the high dose of EP055 (125-130 mg/kg) as described above, and monitored similarly.
# Blood was collected from the brachial vein at the time of each semen collection, and used to determine complete blood counts and serum biochemistry tests (including electrolytes, glucose, lipids, proteins, enzymes and metabolic by-products) as performed in the Clinical Pathology Laboratory in the Division of Comparative Medicine at ONPRC.
compound,measurement,setting,value
COC(=O)NNc1nc(Nc2ccc(NC(C)=O)c(O)c2)nc(SCC(=O)O)n1 [EP055],GGT,6-8 hrs,70.5 ± 2.1- U/l
same,GLUC,6-8 hrs,89.0 ± 6.7 mg/dL
same,Hematocrit,6-8 hrs,44.3 ± 1.0
same,Hemoglobin,6-8 hrs,14.4 ± 0.3 g/dL
same,Leukocytes,6-8 hrs,12.8 ± 2.7 x 10^3/mm^3
same,Lymphocytes,6-8 hrs,18.8 ± 1.9%
same,MCH,6-8 hrs,24.5 ± 0.3 pg/cell
same,MCHC,6-8 hrs,32.6 ± 0.1 g/dL
same,MCV,6-8 hrs,75.1 ± 1.2 fl/cell
same,Magnesium,6-8 hrs,1.8 ± 0.0 mg/dL
same,Monocytes,6-8 hrs,4.9 ± 0.1%
same,Neutrophils,6-8 hrs,9.5 ± 2.0 x 10^3/mm^3
same,Phosphorus,6-8 hrs,5.3 ± 0.3 mg/dL
same,Platelets,6-8 hrs,268.5 ± 38.7 x 10^6
same,Potassium,6-8 hrs,3.9 ± 0.2 mEq/l
same,Sodium,6-8 hrs,149.0 ± 0.9 mEq/l
same,Total Bilirubin,6-8 hrs,0.2 ± 0.1 mg/dL
same,Total Protein,6-8 hrs,7.5 ± 0.0 g/dL
same,Triglycerides,6-8 hrs,63.8 ± 5.7 mg/dL
same,ALT,28-30 hrs,54.3 ± 3.8 U/l
same,AST,28-30 hrs,51.0 ± 6.6 U/l
same,Albumin,28-30 hrs,4.8 ± 0.1 g/dL
same,Alkaline Phosphatase,28-30 hrs,128.5 ± 12.5 U/l
same,BUN,28-30 hrs,15.0 ± 1.5 mg/dL
same,Basophils,28-30 hrs,0.6 ± 0.1%
same,CREAT,28-30 hrs,1.0 ± 0.0 mg/dL
same,Chloride,28-30 hrs,110.3 ± 0.9 mEq/l
same,Cholesterol,28-30 hrs,149.5 ± 19.5 mg/dL
same,Eosinophils,28-30 hrs,1.4 ± 0.1%
same,Erythrocytes,28-30 hrs,5.9 ± 0.3 x 10^6/mm^3
same,GGT,28-30 hrs,72.5 ± 3.9 U/l
same,GLUC,28-30 hrs,90.0 ± 10.3 mg/dL
same,Hematocrit,28-30 hrs,43.9 ± 1.9
same,Hemoglobin,28-30 hrs,14.4 ± 0.7 g/dL
same,Leukocytes,28-30 hrs,11.8 ± 3.1 x 10^3/mm^3
same,Lymphocytes,28-30 hrs,31.1 ± 4.8%
same,MCH,28-30 hrs,24.4 ± 0.2 pg/cell
same,MCHC,28-30 hrs,32.7 ± 0.3 g/dL
same,MCV,28-30 hrs,74.7 ± 1.0 fl/cell
same,Magnesium,28-30 hrs,1.7 ± 0.1 mg/dL
same,Monocytes,28-30 hrs,5.7 ± 0.3%
same,Neutrophils,28-30 hrs,7.2 ± 2.0 x 10^3/mm^3
same,Phosphorus,28-30 hrs,4.0 ± 0.5 mg/dL
same,Platelets,28-30 hrs,185.8 ± 35.8 x 10^6
same,Potassium,28-30 hrs,4.2 ± 0.2 mEq/l
same,Sodium,28-30 hrs,149.0 ± 1.1 mEq/l
same,Total Bilirubin,28-30 hrs,0.2 ± 0.0 mg/dL
same,Total Protein,28-30 hrs,7.7 ± 0.2 g/dL
same,Triglycerides,28-30 hrs,75.3 ± 28.9 mg/dL
same,ALT,78 hrs,60.3 ± 12.2 U/l
same,AST,78 hrs,73.8 ± 33.6 U/l
same,Albumin,78 hrs,4.7 ± 0.1 g/dL
same,Alkaline Phosphatase,78 hrs,125.3 ± 16.3 U/l
same,BUN,78 hrs,18.8 ± 3.2 mg/dL
same,Basophils,78 hrs,0.6 ± 0.1%
same,CREAT,78 hrs,1.0 ± 0.0 mg/dL
same,Chloride,78 hrs,108.0 ± 0.8 mEq/l
same,Cholesterol,78 hrs,144.0 ± 17.0 mg/dL
same,Eosinophils,78 hrs,2.0 ± 0.5%
same,Erythrocytes,78 hrs,5.5 ± 0.2 x 10^6/mm^3
same,GGT,78 hrs,65.3 ± 2.7 U/l
same,GLUC,78 hrs,91.5 ± 7.4 mg/dL
same,Hematocrit,78 hrs,40.6 ± 0.8
same,Hemoglobin,78 hrs,13.3 ± 0.3 g/dL
same,Leukocytes,78 hrs,11.2 ± 3.3 x 10^3/mm^3
same,Lymphocytes,78 hrs,33.7 ± 5.0%
same,MCH,78 hrs,24.5 ± 0.3 pg/cell
same,MCHC,78 hrs,32.8 ± 0.1 g/dL
same,MCV,78 hrs,74.6 ± 1.2 fl/cell
same,Magnesium,78 hrs,1.8 ± 0.0 mg/dL
same,Monocytes,78 hrs,5.5 ± 0.5%
same,Neutrophils,78 hrs,6.6 ± 2.2 x 10^3/mm^3
same,Phosphorus,78 hrs,4.1 ± 0.6 mg/dL
same,Platelets,78 hrs,270.8 ± 25.8 x 10^6
same,Potassium,78 hrs,4.0 ± 0.1 mEq/l
same,Sodium,78 hrs,147.0 ± 1.2 mEq/l
same,Total Bilirubin,78 hrs,0.2 ± 0.0 mg/dL
same,Total Protein,78 hrs,7.6 ± 0.1 g/dL
same,Triglycerides,78 hrs,57.3 ± 14.1 mg/dL
same,ALT,Recovery,31.7 ± 2.3 U/l
same,AST,Recovery,42.3 ± 2.6 U/l
same,Albumin,Recovery,4.3 ± 0.1 g/dL
same,Alkaline Phosphatase,Recovery,79.0 ± 2.3 U/l
same,BUN,Recovery,16.5 ± 1.9 mg/dL
same,Basophils,Recovery,0.5 ± 0.1%
same,CREAT,Recovery,0.8 ± 0.0 mg/dL
same,Chloride,Recovery,107.0 ± 0.0 mEq/l
same,Cholesterol,Recovery,138.7 ± 19.3 mg/dL
same,Eosinophils,Recovery,1.4 ± 0.3%
same,Erythrocytes,Recovery,5.7 ± 0.2- x 10^6/mm^3
same,GGT,Recovery,62.3 ± 1.8 U/l
same,GLUC,Recovery,58.3 ± 4.5 mg/dL
same,Hematocrit,Recovery,42.4 ± 1.1
same,Hemoglobin,Recovery,13.8 ± 0.4 g/dL
same,Leukocytes,Recovery,5.9 ± 1.0 x 10^3/mm^3
same,Lymphocytes,Recovery,44.8 ± 5.4%
same,MCH,Recovery,24.1 ± 0.4 pg/cell
same,MCHC,Recovery,32.5 ± 0.2 g/dL
same,MCV,Recovery,74.1 ± 0.9 fl/cell
same,Magnesium,Recovery,1.9 ± 0.1 mg/dL
same,Monocytes,Recovery,6.4 ± 0.2%
same,Neutrophils,Recovery,4.5 ± 1.7 x 10^3/mm^3
same,Phosphorus,Recovery,5.1 ± 0.2 mg/dL
same,Platelets,Recovery,295.7 ± 11.8 x 10^6
same,Potassium,Recovery,4.0 ± 0.1 mEq/l
same,Sodium,Recovery,146.7 ± 0.3 mEq/l
same,Total Bilirubin,Recovery,0.2 ± 0.0 mg/dL
same,Total Protein,Recovery,7.1 ± 0.1 g/dL
same,Triglycerides,Recovery,38.0 ± 6.9 mg/dL

# Reference: article PMC5908160, “Inhibition of sperm motility in male macaques with EP055, a potential non-hormonal male contraceptive” (PLoS ONE, 2018)
